From ChEMBL document CHEMBL5131550, “Application of Rapidly Accelerating Fibrosarcoma Protein Degraders in Drug Discovery” (ACS Med Chem Lett, 2022)

Legend:
Format in all cases: cell-based
[1] = molecular target: T1, RAF proto-oncogene serine/threonine-protein kinase (Homo sapiens, UniProt P04049); experiment: Inhibition of RAF in human WM3629 cells assessed as ERK phosphorylation at Thr202/Tyr204 residue incubated for 6 hrs by HTRF assay
[2] = molecular target: T1, RAF proto-oncogene serine/threonine-protein kinase; experiment: Inhibition of RAF in human A-375 cells assessed as ERK phosphorylation at Thr202/Tyr204 residue incubated for 6 hrs by HTRF assay
[3] = tested on: Protein cereblon/Serine/threonine-protein kinase B-raf (Homo sapiens), P15056+Q96SW2 [G466V]; experiment: Protac activity at E3 ubiquitin-protein ligase/BRAF G466V mutant in human T-REx-293 cells assessed as maximal BRAF degradation incubated for 24 hrs by plate reader assay
[4] = molecular target: Protein cereblon/Serine/threonine-protein kinase B-raf (Homo sapiens, UniProt P15056+Q96SW2, G466V); experiment: Protac activity at E3 ubiquitin-protein ligase/BRAF G466V mutant in human T-REx-293 cells assessed as BRAF degradation incubated for 24 hrs by plate reader assay
[5] = molecular target: Protein cereblon/Serine/threonine-protein kinase B-raf (Homo sapiens, UniProt P15056+Q96SW2, V600E); experiment: Protac activity at E3 ubiquitin-protein ligase/BRAF V600E mutant in human T-REx-293 cells assessed as BRAF degradation incubated for 24 hrs by plate reader assay
Chain of Protein cereblon/Serine/threonine-protein kinase B-raf (Homo sapiens, UniProt P15056+Q96SW2, V600E) (P15056 2-766 V600E limits assumed, stated change not applied): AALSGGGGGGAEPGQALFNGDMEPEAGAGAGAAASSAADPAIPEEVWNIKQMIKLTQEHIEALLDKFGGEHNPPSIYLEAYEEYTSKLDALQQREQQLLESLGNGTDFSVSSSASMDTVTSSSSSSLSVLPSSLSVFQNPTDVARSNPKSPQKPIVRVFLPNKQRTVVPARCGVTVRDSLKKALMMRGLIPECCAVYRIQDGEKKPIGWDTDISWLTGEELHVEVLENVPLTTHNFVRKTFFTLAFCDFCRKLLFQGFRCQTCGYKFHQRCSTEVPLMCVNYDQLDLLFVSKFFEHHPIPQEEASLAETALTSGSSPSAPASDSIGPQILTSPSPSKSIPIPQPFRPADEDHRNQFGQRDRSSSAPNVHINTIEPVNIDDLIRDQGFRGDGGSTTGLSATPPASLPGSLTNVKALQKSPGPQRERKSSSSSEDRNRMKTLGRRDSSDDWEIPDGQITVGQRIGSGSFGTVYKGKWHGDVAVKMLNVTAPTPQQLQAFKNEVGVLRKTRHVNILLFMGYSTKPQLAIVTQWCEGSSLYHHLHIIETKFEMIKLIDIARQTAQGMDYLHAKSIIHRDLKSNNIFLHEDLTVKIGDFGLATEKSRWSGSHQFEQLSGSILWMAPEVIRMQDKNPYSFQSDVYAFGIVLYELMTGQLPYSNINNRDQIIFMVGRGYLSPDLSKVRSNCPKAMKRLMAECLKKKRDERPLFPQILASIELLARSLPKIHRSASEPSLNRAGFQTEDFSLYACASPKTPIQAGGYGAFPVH
Chain of Protein cereblon/Serine/threonine-protein kinase B-raf (Homo sapiens, UniProt P15056+Q96SW2, V600E) (Q96SW2 whole entry, stated change not applied): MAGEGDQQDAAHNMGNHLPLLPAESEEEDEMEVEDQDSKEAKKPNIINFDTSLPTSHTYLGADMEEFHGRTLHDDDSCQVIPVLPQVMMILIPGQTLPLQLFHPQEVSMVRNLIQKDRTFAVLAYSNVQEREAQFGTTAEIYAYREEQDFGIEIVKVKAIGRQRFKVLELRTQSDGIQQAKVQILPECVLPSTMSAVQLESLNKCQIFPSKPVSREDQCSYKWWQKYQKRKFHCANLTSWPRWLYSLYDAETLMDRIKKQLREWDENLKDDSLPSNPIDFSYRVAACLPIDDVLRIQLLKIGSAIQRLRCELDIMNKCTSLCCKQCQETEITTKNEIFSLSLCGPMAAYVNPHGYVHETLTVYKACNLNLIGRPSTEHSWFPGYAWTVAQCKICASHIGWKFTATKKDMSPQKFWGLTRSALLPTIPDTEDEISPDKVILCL

[6] = tested on: Protein cereblon/Serine/threonine-protein kinase B-raf (Homo sapiens), P15056+Q96SW2 [V600E]; experiment: Protac activity at E3 ubiquitin-protein ligase/BRAF V600E mutant in human T-REx-293 cells assessed as maximal BRAF degradation incubated for 24 hrs by plate reader assay

T1 sequence (P04049 whole entry): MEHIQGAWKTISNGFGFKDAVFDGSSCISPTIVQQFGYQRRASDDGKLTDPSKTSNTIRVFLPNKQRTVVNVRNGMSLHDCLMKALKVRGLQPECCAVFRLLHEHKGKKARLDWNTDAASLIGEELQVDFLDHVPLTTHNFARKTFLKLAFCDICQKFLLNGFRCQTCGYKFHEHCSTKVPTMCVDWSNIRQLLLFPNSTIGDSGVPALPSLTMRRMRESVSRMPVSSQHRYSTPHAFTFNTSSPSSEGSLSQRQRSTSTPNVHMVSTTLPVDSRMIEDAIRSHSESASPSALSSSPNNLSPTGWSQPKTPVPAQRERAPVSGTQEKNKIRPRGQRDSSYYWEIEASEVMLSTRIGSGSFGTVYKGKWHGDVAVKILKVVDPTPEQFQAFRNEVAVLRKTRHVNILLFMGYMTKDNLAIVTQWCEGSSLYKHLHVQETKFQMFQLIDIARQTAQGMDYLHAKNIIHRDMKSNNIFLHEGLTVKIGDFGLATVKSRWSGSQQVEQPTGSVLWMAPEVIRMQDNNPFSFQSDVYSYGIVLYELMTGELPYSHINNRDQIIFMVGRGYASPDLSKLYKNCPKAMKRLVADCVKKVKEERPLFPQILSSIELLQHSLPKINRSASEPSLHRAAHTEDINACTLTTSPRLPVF

Row | IC50 [1] | IC50 [2] | Structure (SMILES) | Emax [3] | DC50 [4] | DC50 [5] | Emax [6]
1 | 10 nM | 100 nM | Cc1ccc(NC(=O)N2CC[C@@H](CC(F)(F)F)C2)cc1-c1cnc(OCCN2CCN(c3ccc4c(c3)C(=O)N(C3CCC(=O)NC3=O)C4=O)CC2)c(N2CCOCC2)c1 (some centres not stated) |  |  |  | 
2 |  |  | O=C1CCC(N2Cc3cc(N4CCC(CN5CC6(CCN(c7ncc(-c8cnc9[nH]cc(C(=O)c%10c(F)ccc(NS(=O)(=O)N%11CC[C@@H](F)C%11)c%10F)c9c8)cn7)C6)C5)CC4)ccc3C2=O)C(=O)N1 (some centres not stated) | > 70% | 1 nM | ≤ 5 nM | 35%
3 | 10 nM | 1000 nM | Cc1ncc(NC(=O)N2CC[C@@H](CC(F)(F)F)C2)cc1-c1cnc(OCCN2CCN(c3ccc4c(c3)C(=O)N(C3CCC(=O)NC3=O)C4=O)CC2)c(N2CCOCC2)c1 (some centres not stated) |  |  |  | 
4 |  |  | COc1cc(N2CCC(CN3CCC4(CC3)CCN(c3ccc(-c5cnc6[nH]cc(C(=O)c7c(F)ccc(NS(=O)(=O)N8CC[C@@H](F)C8)c7F)c6c5)cc3)CC4)CC2)cc2c1C(=O)N(C1CCC(=O)NC1=O)C2 (some centres not stated) | 35% | 1 nM | ≤ 5 nM | 35%
